Reference: US5958938A, “Bis-pyrido[4,3-b]carbazole compounds” (Adir et Compagnie, priority 1997, dated 1999)
Like-named read-outs stand apart in the source and are kept apart here.

Assays:
B 16 (murine melanoma) = test: In vivo anti-tumor activity, B 16 i.p.; parameters: species or system BDF1 mouse; conditions: for % T/C / Long-term survivors/total no. of mice: D1-9, i.p.; for Long-term survivors/total no. of mice: survivors at 90 days
Description: Line B 16 (murine melanoma) is supplied by The National Cancer Institute (Frederick, USA). The tumor is maintained by successive subcutaneous grafts of tumor fragments. On day 0, the tumors are broken up and homogenised in 0.9% NaCl (1 g, of tumor in 10 ml) and 0.5 ml of the homogenate is injected into the peritoneal cavity of each BDF1 mouse. The products are administered intraperitoneally at the doses indicated once a day for 9 days (D1-9).
The anti-tumor activity is expressed as % T/C, as defined above. The animals surviving at 90 days (long-term survivors) are indicated.

P 388 (murine leukaemia) = test: In vivo anti-tumor activity, P 388 i.p.; parameters: species or system female BDF1 mice; conditions: for Long-term survivors/total no. of mice: survivors at 60 days
Description: Line P 388 (murine leukaemia) is supplied by The National Cancer Institute (Frederick, USA). The tumor cells (10^6 cells) are inoculated on day 0 into the peritoneal cavity of female BDF1 mice (Iffa-Credo, France) weighing from 18 to 20 g (groups of 6 or 7 animals).
The products are administered intravenously on day 1 or on days 1, 5 and 9 at the doses indicated.
The anti-tumor activity is expressed as % T/C: [formula]
The animals surviving at 60 days (long-term survivors) are indicated.

murine leukaemia, L 1210 = test: Cytotoxicity, Microculture Tetrazolium Assay, L 1210; type: cell-based; conditions: Mus musculus, L1210, 48 h, read-out: IC50 (cytotoxicity)
Excerpt: (§1) Three cell lines were used:
(§2) The cells are distributed on microplates and exposed to the cytotoxic compounds.

[1] = tested on: human pulmonary carcinoma, A 549; test: Cytotoxicity, Microculture Tetrazolium Assay, A 549; type: cell-based; conditions: for IC50: Homo sapiens, A549, 96 h, read-out: IC50 (cytotoxicity)
Excerpt: as §1, §2

murine melanoma, B 16 = test: Cytotoxicity, Microculture Tetrazolium Assay, B 16; type: cell-based; conditions: for IC50: Mus musculus, read-out: IC50 (cytotoxicity)
Excerpt: as §1, §2

[2] = D1,5,9, i.v., optimum dose 10 mg/kg
[3] = D1, i.v., optimum dose 10 mg/kg
[4] = B16, 96 h, B 16, 4 days incubation
[5] = D1,5,9, i.v., optimum dose 80 mg/kg
[6] = D1, i.v., optimum dose 80 mg/kg

## Cc1c2c(C(=O)NCCN(C)C)nccc2c(C)c2c1c1cc(OC(=O)CCCCC(=O)Oc3ccc4c(c3)c3c(C)c5c(C(=O)NCCN(C)C)nccc5c(C)c3n4C)ccc1n2C [Example 1, bis[1-(2-dimethylaminoethylcarbamoyl)-5,6, 11-trimethyl-6H-pyrido[4,3-b]carbazol-9-yl] ester of hexanedloic acid]
B 16 (murine melanoma); optimum dose 5 mg/kg
  % T/C: 429%
  Long-term survivors/total no. of mice: 3/7
B 16 (murine melanoma); melanoma B 16 model, at the optimum dose
  Long-term survivors: 3 long-term survivors
B 16 (murine melanoma); melanoma B 16 model, in words
  Anti-tumor activity: very active
P 388 (murine leukaemia); [2]
  % T/C: > 582%
  Long-term survivors/total no. of mice: 3/6
P 388 (murine leukaemia); [3]
  % T/C: 252%
  Long-term survivors/total no. of mice: 1/6
P 388 (murine leukaemia); leukaemia P 388 model, in words
  Anti-tumor activity compared with reference product A: more potent than, and as active as, reference product A
Murine leukaemia, L 1210; L 1210, 2 days incubation
  IC50: 73.5 nM
[1]; A 549, in words
  Cytotoxicity compared with reference products A and B: more cytotoxic than reference products A and B
[1]; A 549 versus L 1210, in words
  Cytotoxicity compared with line L 1210: greater for lines B 16 and A 549 than for line L 1210
[1]; A 549, 4 days incubation
  IC50: 17.6 nM
Murine melanoma, B 16; B 16, in words
  Cytotoxicity compared with reference products A and B: more cytotoxic than reference products A and B
Murine melanoma, B 16; B 16 versus L 1210, in words
  Cytotoxicity compared with line L 1210: greater for lines B 16 and A 549 than for line L 1210
Murine melanoma, B 16; [4]
  IC50: 3 nM

## Cc1c2ccnc(C(=O)NCCN(C)C)c2cc2c3cc(O)ccc3n(C)c12 [Reference A, 1-(N,N-dimethylaminoethylaminocarbamoyl)-5,6-diiethyl-9-hydroxy-6H-pyrido-[4,3-b]carbazole, reference compound]
B 16 (murine melanoma); optimum dose 10 mg/kg
  % T/C: 190%
  Long-term survivors/total no. of mice: 0/7
B 16 (murine melanoma); melanoma B 16 model, in words
  Long-term survivors: none
P 388 (murine leukaemia); [5]
  % T/C: 320%
  Long-term survivors/total no. of mice: 2/6
P 388 (murine leukaemia); [6]
  % T/C: 221%
  Long-term survivors/total no. of mice: 0/6
Murine leukaemia, L 1210; L 1210, 2 days incubation
  IC50: 7.8 nM
[1]; A 549, 4 days incubation
  IC50: 30.5 nM
Murine melanoma, B 16; [4]
  IC50: 5.1 nM

## COc1cccc2c1C(=O)c1c(O)c3c(c(O)c1C2=O)C[C@@](O)(C(=O)CO)C[C@@H]3O[C@H]1C[C@H](N)[C@H](O)[C@H](C)O1 [Reference B, adriamycin, reference compound]
Murine leukaemia, L 1210
  IC50: 24.3 nM
[1]
  IC50: 39.4 nM
Murine melanoma, B 16; 96 h
  IC50: 6.8 nM
